The numbers were not newly measured in patent publication US10463585B2, “Cosmetic compositions” (The Procter & Gamble Company, priority 2017, dated 2019), which cites them from elsewhere.

The data set concerns tyrosinase expression. To be noted: in vivo; background statement.

Turning to “PKEK (Artificial sequence is synthesized)”, the Tyrosinase expression entry was “reduce tyrosinase expression”.
